# Results: PMC7914897, “Cytotoxic Potential of a-Azepano- and 3-Amino-3,4-SeCo-Triterpenoids” (International Journal of Molecular Sciences, 2021)
# Like-named read-outs stand apart in the source and are kept apart here.
# Tests used:
# OVCAR-3 (Ovarian cancer) = assay: cells; details: Homo sapiens
# Colon Cancer subpanel = assay: NCI-60 screen, subpanel; details: Homo sapiens
# CNS cancer subpanel = assay: NCI-60 screen, subpanel; details: Homo sapiens
# Ovarian Cancer subpanel = assay: NCI-60 screen, subpanel; details: Homo sapiens
# Renal Cancer subpanel = assay: NCI-60 screen, subpanel; details: Homo sapiens
# CCRF-CEM (Leukemia) = assay: NCI-60 screen (SRB, 48 h); details: Homo sapiens
# MOLT-4 (Leukemia) = assay: NCI-60 screen (SRB, 48 h); details: Homo sapiens
# EKVX (NSC lung cancer) = assay: NCI-60 screen (SRB, 48 h); details: Homo sapiens
# HOP-62 (NSC lung cancer) = assay: NCI-60 screen (SRB, 48 h); details: Homo sapiens
# HOP-92 (NSC lung cancer) = assay: NCI-60 screen (SRB, 48 h); details: Homo sapiens
# [1] = test system: NCI-H226 (NSC lung cancer); assay: NCI-60 screen (SRB, 48 h); details: Homo sapiens
# [2] = test system: NCI-H322M (NSC lung cancer); assay: NCI-60 screen (SRB, 48 h); details: Homo sapiens
# COLO 205 (Colon cancer) = assay: NCI-60 screen (SRB, 48 h); details: Homo sapiens
# HT29 (Colon cancer) = assay: NCI-60 screen (SRB, 48 h); details: Homo sapiens
# SW-620 (Colon cancer) = assay: NCI-60 screen (SRB, 48 h); details: Homo sapiens
# SF-295 (CNS cancer) = assay: NCI-60 screen (SRB, 48 h); details: Homo sapiens
# SNB-75 (CNS cancer) = assay: NCI-60 screen (SRB, 48 h); details: Homo sapiens
# M14 (Melanoma) = assay: NCI-60 screen (SRB, 48 h); details: Homo sapiens
# SK-MEL-28 (Melanoma) = assay: NCI-60 screen (SRB, 48 h); details: Homo sapiens
# OVCAR-5 (Ovarian cancer) = assay: NCI-60 screen (SRB, 48 h); details: Homo sapiens
# SK-OV-3 (Ovarian cancer) = assay: NCI-60 screen (SRB, 48 h); details: Homo sapiens
# A498 (Renal cancer) = assay: NCI-60 screen (SRB, 48 h); details: Homo sapiens
# CAKI-1 (Renal cancer) = assay: NCI-60 screen (SRB, 48 h); details: Homo sapiens
# UO-31 (Renal cancer) = assay: NCI-60 screen (SRB, 48 h); details: Homo sapiens
# DU-145 (Prostate cancer) = assay: NCI-60 screen (SRB, 48 h); details: Homo sapiens
# T-47D (Breast cancer) = assay: NCI-60 screen (SRB, 48 h); details: Homo sapiens, T47D
# [3] = test system: panel of approximately 60 cancer cell lines; assay: NCI-60 screen (SRB, 48 h), full panel
smiles,measurement,setting,value
"C=C(C)C1CCC2(CO)CCC3(C)C(CCC4C5(C)CCCNC(C)(C)C5CCC43C)C12 (stereo not drawn) [Compound 1, Azepanobetulin]",GI50,OVCAR-3 (Ovarian cancer); OVCAR-3,1.66 µM
same,IC (TGI),"OVCAR-3 (Ovarian cancer); OVCAR-3, 48 h, read-out: TGI",3.13 µM
same,CC50,"OVCAR-3 (Ovarian cancer); OVCAR-3, read-out: LC50",5.91 µM
same,IC (TGI),"Colon Cancer subpanel; 48 h, read-out: TGI MG_MID",3.01 µM
same,GI50,Colon Cancer subpanel; read-out: GI50 MG_MID,1.51 µM
same,CC50,Colon Cancer subpanel; read-out: LC50 MG_MID,5.98 µM
same,IC (TGI),"CNS cancer subpanel; 48 h, read-out: TGI MG_MID",3.15 µM
same,GI50,CNS cancer subpanel; read-out: GI50 MG_MID,1.65 µM
same,CC50,CNS cancer subpanel; read-out: LC50 MG_MID,5.98 µM
same,IC (TGI),"Ovarian Cancer subpanel; 48 h, read-out: TGI MG_MID",3.18 µM
same,GI50,Ovarian Cancer subpanel; read-out: GI50 MG_MID,1.65 µM
same,CC50,Ovarian Cancer subpanel; read-out: LC50 MG_MID,6.24 µM
same,IC (TGI),"Renal Cancer subpanel; 48 h, read-out: TGI MG_MID",3.43 µM
same,GI50,Renal Cancer subpanel; read-out: GI50 MG_MID,1.71 µM
same,CC50,Renal Cancer subpanel; read-out: LC50 MG_MID,9.33 µM
same,GI50,CCRF-CEM (Leukemia),2.07 µM
same,IC (TGI),"CCRF-CEM (Leukemia); 48 h, read-out: TGI",4.91 µM
same,CC50,CCRF-CEM (Leukemia); read-out: LC50,> 100 µM
same,GI50,MOLT-4 (Leukemia); MOLT-4,1.79 µM
same,IC (TGI),"MOLT-4 (Leukemia); MOLT-4, 48 h, read-out: TGI",4.5 µM
same,CC50,"MOLT-4 (Leukemia); MOLT-4, read-out: LC50",> 100 µM
same,GI50,EKVX (NSC lung cancer),1.55 µM
same,IC (TGI),"EKVX (NSC lung cancer); 48 h, read-out: TGI",3.03 µM
same,CC50,EKVX (NSC lung cancer); read-out: LC50,5.92 µM
same,GI50,HOP-62 (NSC lung cancer); HOP-62,1.81 µM
same,IC (TGI),"HOP-62 (NSC lung cancer); HOP-62, 48 h, read-out: TGI",3.42 µM
same,CC50,"HOP-62 (NSC lung cancer); HOP-62, read-out: LC50",6.46 µM
same,GI50,HOP-92 (NSC lung cancer); HOP-92,1.73 µM
same,IC (TGI),"HOP-92 (NSC lung cancer); HOP-92, 48 h, read-out: TGI",3.33 µM
same,CC50,"HOP-92 (NSC lung cancer); HOP-92, read-out: LC50",6.42 µM
same,GI50,[1]; NCI-H226,1.98 µM
same,IC (TGI),"[1]; NCI-H226, 48 h, read-out: TGI",4.09 µM
same,CC50,"[1]; NCI-H226, read-out: LC50",8.43 µM
same,GI50,[2],1.63 µM
same,IC (TGI),"[2]; 48 h, read-out: TGI",3.03 µM
same,CC50,[2]; read-out: LC50,5.64 µM
same,GI50,COLO 205 (Colon cancer); COLO 205,1.54 µM
same,IC (TGI),"COLO 205 (Colon cancer); COLO 205, 48 h, read-out: TGI",3.24 µM
same,CC50,"COLO 205 (Colon cancer); COLO 205, read-out: LC50",6.82 µM
same,GI50,HT29 (Colon cancer); HT-29,1.27 µM
same,IC (TGI),"HT29 (Colon cancer); HT-29, 48 h, read-out: TGI",2.85 µM
same,GI50,SW-620 (Colon cancer); SW-620,1.81 µM
same,IC (TGI),"SW-620 (Colon cancer); SW-620, 48 h, read-out: TGI",3.41 µM
same,CC50,"SW-620 (Colon cancer); SW-620, read-out: LC50",6.44 µM
same,GI50,SF-295 (CNS cancer); SF-295,1.66 µM
same,IC (TGI),"SF-295 (CNS cancer); SF-295, 48 h, read-out: TGI",3.13 µM
same,CC50,"SF-295 (CNS cancer); SF-295, read-out: LC50",5.9 µM
same,GI50,SNB-75 (CNS cancer); SNB-75,1.54 µM
same,IC (TGI),"SNB-75 (CNS cancer); SNB-75, 48 h, read-out: TGI",2.91 µM
same,CC50,"SNB-75 (CNS cancer); SNB-75, read-out: LC50",5.5 µM
same,GI50,M14 (Melanoma); M14,1.58 µM
same,IC (TGI),"M14 (Melanoma); M14, 48 h, read-out: TGI",3.13 µM
same,CC50,"M14 (Melanoma); M14, read-out: LC50",6.19 µM
same,GI50,SK-MEL-28 (Melanoma); SK-MEL-28,1.62 µM
same,IC (TGI),"SK-MEL-28 (Melanoma); SK-MEL-28, 48 h, read-out: TGI",3.15 µM
same,CC50,"SK-MEL-28 (Melanoma); SK-MEL-28, read-out: LC50",6.13 µM
same,GI50,OVCAR-5 (Ovarian cancer); OVCAR-5,1.51 µM
same,IC (TGI),"OVCAR-5 (Ovarian cancer); OVCAR-5, 48 h, read-out: TGI",2.89 µM
same,CC50,"OVCAR-5 (Ovarian cancer); OVCAR-5, read-out: LC50",5.52 µM
same,GI50,SK-OV-3 (Ovarian cancer); SK-OV-3,1.83 µM
same,IC (TGI),"SK-OV-3 (Ovarian cancer); SK-OV-3, 48 h, read-out: TGI",3.49 µM
same,CC50,"SK-OV-3 (Ovarian cancer); SK-OV-3, read-out: LC50",6.64 µM
same,GI50,A498 (Renal cancer); A498,2.17 µM
same,IC (TGI),"A498 (Renal cancer); A498, 48 h, read-out: TGI",5.63 µM
same,CC50,"A498 (Renal cancer); A498, read-out: LC50",33 µM
same,GI50,CAKI-1 (Renal cancer); CAKI-1,1.55 µM
same,IC (TGI),"CAKI-1 (Renal cancer); CAKI-1, 48 h, read-out: TGI",2.89 µM
same,CC50,"CAKI-1 (Renal cancer); CAKI-1, read-out: LC50",5.4 µM
same,GI50,UO-31 (Renal cancer); UO-31,1.56 µM
same,IC (TGI),"UO-31 (Renal cancer); UO-31, 48 h, read-out: TGI",2.99 µM
same,CC50,"UO-31 (Renal cancer); UO-31, read-out: LC50",5.74 µM
same,GI50,DU-145 (Prostate cancer); DU-145,3.02 µM
same,IC (TGI),"DU-145 (Prostate cancer); DU-145, 48 h, read-out: TGI",3.02 µM
same,CC50,"DU-145 (Prostate cancer); DU-145, read-out: LC50",5.58 µM
same,GI50,T-47D (Breast cancer),1.73 µM
same,IC (TGI),"T-47D (Breast cancer); 48 h, read-out: TGI",3.71 µM
same,CC50,T-47D (Breast cancer); read-out: LC50,7.96 µM
same,Positive Cytostatic Effect (cell lines with percent growth 0 to 50 / total),[3]; 1 dose 10 µM,27/59
same,number of cancer cell lines the compound was active against,[3]; 1 dose 10 µM,28 cell lines
same,activity at 10 µM,"[3]; Homo sapiens, 48 h, read-out: Mean Growth, %",20.8%
same,activity at 10 µM,"[3]; Homo sapiens, 48 h, read-out: Range of Growth, %",-82.5 to 84.4%
same,IC (TGI),"[3]; Homo sapiens, 48 h, read-out: TGI MG_MID60, average over all cell lines",3.34 µM
same,GI50,"[3]; Homo sapiens, read-out: GI50 MG_MID60",1.7 µM
same,GI50,"[3]; Homo sapiens, read-out: GI50 against all human tumor cell lines",< 3 µM
